Assay results from patent US8734788B2, “Composition and method for treatment of reperfusion injury and tissue damage” (OPSONA Therapeutics Ltd, priority 2007, dated 2014).
pIC50: −log10 of the molar value. “Also recorded” adds a separate entry of the source.

Columns and labels:
[1] = system: myocardial ischemia/reperfusion (I/R) injury in C57BL6 mice; assay: Infarct size after myocardial ischemia/reperfusion in mice (Evans blue/TTC staining); type: in vivo; settings: for effect on infarct size (in words): administered 5 minutes prior to reperfusion, versus saline/PBS
Protocol: Male C57BL6 mice (8-12 weeks old, 25-30 grams of weight) underwent 30 minutes of ischemia followed by 24 hours of reperfusion.
Experimental compounds were administered 5 minutes prior to reperfusion via the tail vein. […] OPN-301 (OPN301) is a murine IgG1 anti-TLR2 antibody (mouse Toll-like Receptor 2 (TLR2) antibody, clone T2.5, HyCult Biotechnology b.v., Cell Sciences, Canton, USA: catalogue number 1054).
Mice were anesthetized with a mixture of […]™ (N-(1-phenethyl-4-piperidyl)-N-phenyl-propanamide) 0.05 mg/kg, DORMICUM™ (Midazolum, 8-chloro-6-(2-fluorophenyl)-1-methyl-4H-imidazo[1,5-a][1,4]benzodiazepine) 5 mg/kg and DOMITOR™ (medetomidine hydrochlorine) 0.5 mg/kg (intraperitoneal injection). Atropine ((8-methyl-8-azabicyclo[3.2.1]oct-3-yl) 3-hydroxy-2-phenylpropanoate) 0.05 mg/kg was subcutaneously administered before coronary ligation. Core body temperature was maintained between 36° C. and 37.5° C. during surgery by continuous monitoring with a rectal thermometer and automatic heating blanket. Mice were […] and ventilated (Harvard Apparatus Inc.) with 100% oxygen. The left anterior descending (LAD) coronary artery was ligated using an 8-0 vicryl suture with a section of polyethylene-10 tubing placed over the LAD.
Ischemia was confirmed by bleaching of the myocardium. Reperfusion was initiated by releasing the ligature and removing the polyethylene-10 tubing. Reperfusion of the endangered myocardium is characterized by typical hyperaemia in the first few minutes. A piece of the loosened suture was left in place in order to determine ischemic area. The chest wall was closed and the animals received subcutaneously […]™ (atipamezole hydrochloride, a sedation reversal agent for DOMITOR™ (medetomidine hydrochlorine)) 2.5 mg/kg, ANEXATE™ (Flumazenil (also known as flumazepil)) 0.5 mg/kg and […]™ (buprenorphine) 0.1 mg/kg.
Infarct Size (IS) is expressed as a percentage of the Area-At-Risk (AAR) and total Left Ventricle (LV). The ratio of AAR/LV is a measure for the extent of myocardial tissue that underwent ischemia and reperfusion (i.e. endangered area). The ratio IS/AAR is an accurate measurement to determine infarct size within endangered myocardium and is the primary endpoint from which the efficacy of treatment is addressed. The secondary endpoint IS/LV ratio is the percentage infarcted area within the total left ventricular wall.
To determine the AAR, the LAD was ligated once again (at the level marked by the suture left in place) and 4% Evans blue dye was injected via the thoracic aorta in a retrograde fashion. Hearts were rapidly explanted, rinsed in 0.9% saline and wrapped in a clear food wrap and frozen at −20° C. for 1 hour. Hearts were then mechanically sliced into five 1 mm cross sections. Heart sections were incubated in 1% triphenyltetrazolium chloride (Sigma-Aldrich) at 37° C. for 15 minutes before placing them in formaldehyde for another 15 minutes. Viable tissue stained red and infarcted tissue appeared white. Heart sections were digitally photographed (CANON EOS 400D) under a microscope (CARL ZEISS™). IS, MR and total LV area were measured using ImageJ software (version 1.34).
All data are expressed as Mean±SD. After skewness±SD and kurtosis±SD confirmed normality, a one-way ANOVA with Bonferroni adjustment (Table 2) and a Dunnett's T test (2 sided) (Table 4). was used to test differences between groups. Kolmogorov-Smirnov test performed if abnormal distribution was suspected (i.e. when kurtosis and skewness values are twice their standard deviations). All statistical analyses were performed using SPSS version 13.0 for Windows (SPSS, Chicago, USA) and p<0.05 was considered significant.

[2] = system: IL-1 production in LPS-stimulated human peripheral blood monocytes; settings: cited from earlier work
[3] = Table 1, 30 min ischemia/24 h reperfusion, i.v. 5 min prior to reperfusion, mAb and IgG 10 mg/kg, SB239063 0.5 mg/kg, n=10
[4] = Table 2, Bonferroni, (J) group IgG isotype
[5] = Table 2, Bonferroni, (J) group PBS
[6] = Table 2, Bonferroni, (J) group exp. mAB
[7] = Table 3 (amended, saline control set), 30 min ischemia/24 h reperfusion, n=10
[8] = Table 5, Dunnett, (J) group Saline

trans-1-(4-Hydroxycyclohexyl)-4-(fluorophenyl)-5-(2-methoxypyrimidin-4-yl) imidazole [SB239063]
IS_AAR (infarct size as percentage of Area At Risk), Mean [1, 3]: 31.4000%
IS_LV (infarct size as percentage of total Left Ventricle), Mean [1, 3]: 12.0100%
IS_AAR Mean Difference (I-J) [1, 4]: .25400
IS_LV Mean Difference (I-J) [1, 4]: −.85200
IS_AAR Mean Difference (I-J) [1, 5]: −4.185
IS_LV Mean Difference (I-J) [1, 5]: −5.3
IS_AAR Mean Difference (I-J) [1, 6]: 13.51(*)
IS_LV Mean Difference (I-J) [1, 6]: 5.908(*)
IS/AAR Mean [1, 7]: 31.7250%
IS/LV Mean [1, 7]: 12.3220%
IS_AAR Mean Difference (I-J) ([1]; Table 4, Dunnett, (J) group Saline, n=10 groups): −2.776
IS_AAR Mean Difference (I-J) [1, 8]: −2.776
IS_LV Mean Difference (I-J) [1, 8]: −1.74
effect on infarct size (in words) [1]: did not reduce infarct size
effect on infarct size (in words) ([1]; listed as p38 inhibitor): no reduction of infarct size; also recorded: no difference in infarct size
difference in mean IS/LV ([1]; versus PBS treated mice, not statistically significant (FIG. 7)): −26%
pIC50 [2]: 6.92
